Assays:
Assay type in all cases: in vivo
[1] = tested on: Aphis craccivora; test: B.1 Cowpea aphid spray test on potted cowpea plants; conditions: for mortality at 500 ppm: population reduction assessed after 24, 72 and 120 hours, read-out: mortality in comparison with untreated controls; for mortality at 0.3 ppm: read-out: % mortality in comparison to untreated controls
Protocol: If not otherwise specified the test solutions were prepared as follows:
The active compound was dissolved at the desired concentration in a mixture of 1:1 (vol:vol) distilled water:aceton. The test solution was prepared at the day of use and in general at concentrations of ppm (wt/vol).
B.1 Cowpea Aphid (Aphis craccivora)
Potted cowpea plants colonized with 100-150 aphids of various stages were sprayed after the pest population had been recorded. Population reduction was assessed after 24, 72, and 120 hours.

[2] = tested on: Myzus persicae; test: B.5 Green peach aphid spray test on bell pepper plants; conditions: for mortality at 10 ppm: 120 h, after 5 days, read-out: mortality in comparison with untreated controls; for mortality at 0.1 ppm: read-out: % mortality in comparison to untreated controls
Protocol: B.5 Green Peach Aphid (Myzus persicae)
(§1) The active compounds were formulated in cyclohexanone as a 10,000 ppm solution supplied in 1.3 ml ABgene® tubes. These tubes were inserted into an automated electrostatic sprayer equipped with an atomizing nozzle and they served as stock solutions for which lower dilutions were made in 1:1 (vol:vol) water:aceton. A nonionic surfactant (Kinetic®) was included in the solution at a volume of 0.01% (v/v).
Bell pepper plants at the first true-leaf stage were infested prior to treatment by placing heavily infested leaves from the main colony on top of the treatment plants. Aphids were allowed to transfer overnight to accomplish an infestation of 30-50 aphids per plant and the host leaves were removed. The infested plants were then sprayed by an automated electrostatic plant sprayer equipped with an atomizing spray nozzle. The plants were dried in the sprayer fume hood, removed, and then maintained in a growth room under fluorescent lighting in a 24 hour photoperiod at 25° C. and 20-40% relative humidity. Aphid mortality on the treated plants, relative to mortality on untreated control plants, was determined after 5 days.

[3] = tested on: Megoura viciae; test: B.4 Vetch aphid bean leaf disk microtiter test; conditions: foliar, 144 h, 6 days, read-out: mortality in comparison with untreated controls
Protocol: B.4 Vetch Aphid (Megoura viciae)
The active compounds were formulated in 3:1 (vol:vol) water:DMSO with different concentrations of formulated compounds.
Bean leaf disks were placed into microtiterplates filled with 0.8% agar-agar and 2.5 ppm OPUS™. The leaf disks were sprayed with 2.5 μl of the test solution and 5 to 8 adult aphids were placed into the microtiter plates which were then closed and kept at 23±1° C. and 50±5% relative humidity under fluorescent light for 6 days. Mortality was assessed on the basis of vital, reproduced aphids. Aphid mortality and fecundity was then visually assessed.

[4] = tested on: Aphis gossypii; test: B.2 Cotton aphid, mixed life stages, spray test on cotton plants; conditions: for mortality at 3 ppm / mortality at 0.1 ppm: read-out: % mortality in comparison to untreated controls; for mortality at 10 ppm: 120 h, after 5 days, read-out: mortality in comparison with untreated controls
Protocol: B.2 Cotton Aphid (Aphis gossypii, Mixed Life Stages)
as §1
Cotton plants at the cotyledon stage were infested with aphids prior to treatment by placing a heavily infested leaf from the main aphid colony on top of each cotyledon. Aphids were allowed to transfer overnight to accomplish an infestation of 80-100 aphids per plant and the host leaf was removed. The infested plants were then sprayed by an automated electrostatic plant sprayer equipped with an atomizing spray nozzle. The plants were dried in the sprayer fume hood, removed from the sprayer, and then maintained in a growth room under fluorescent lighting in a 24-hr photoperiod at 25° C. and 20-40% relative humidity. Aphid mortality on the treated plants, relative to mortality on untreated control plants, was determined after 5 days.

[5] = tested on: Bemisia argentifolii; test: B.3 Silverleaf whitefly, adult, spray test on cotton plants; conditions: for mortality at 100 ppm / mortality at 1 ppm / mortality at 3 ppm: read-out: % mortality in comparison to untreated controls; for mortality at 10 ppm: 72 h, 3 days after treatment, read-out: mortality in comparison with untreated controls
Protocol: B.3 Silverleaf Whitefly (Bemisia argentifolii, Adult)
as §1
Cotton plants at the cotyledon stage (one plant per pot) were sprayed by an automated electrostatic plant sprayer equipped with an atomizing spray nozzle. The plants were dried in the sprayer fume hood and then removed from the sprayer. Each pot was placed into a plastic cup and 10 to 12 whitefly adults (approximately 3-5 days old) were introduced. The insects were collected using an aspirator and 0.6 cm, nontoxic Tygon® tubing (R-3603) connected to a barrier pipette tip. The tip, containing the collected insects, was then gently inserted into the soil containing the treated plant, allowing insects to crawl out of the tip to reach the foliage for feeding. Cups were covered with a reusable screened lid (150-micron mesh polyester screen PeCap from Tetko, Inc.). Test plants were maintained in a growth room at 25° C. and 20-40% relative humidity for 3 days, avoiding direct exposure to fluorescent light (24 hour photoperiod) to prevent trapping of heat inside the cup. Mortality was assessed 3 days after treatment, compared to untreated control plants.

[6] = tested on: Anthonomus grandis; test: B.6 Boll weevil insect diet microtiter test; conditions: 120 h, egg and larval mortality, 5 days, read-out: mortality in comparison with untreated controls
Protocol: B.6 Boll Weevil (Anthonomus grandis)
The compounds were formulated in 3:1 (vol:vol) water:DMSO.
For evaluating control of boll weevil (Anthonomus grandis) the test unit consisted of 24-well-microtiter plates containing an insect diet and 20-30 A. grandis eggs. Different concentrations of formulated compounds were sprayed onto the insect diet at 20 μl, using a custom built micro atomizer, at two replications. After application, the microtiter plates were incubated at 23±1° C. and 50±5% relative humidity for 5 days. Egg and larval mortality was then visually assessed.

[7] = tested on: Dichromothrips corbetti; test: B.8 Orchid thrips petal dip test; conditions: 72 h, after 72 hours, read-out: mortality in comparison with untreated controls
Protocol: B.8 Orchid Thrips (Dichromothrips corbetti)
The active compounds were formulated as a 1:1 (vol:vol) water:aceton solution. Surfactant (Alkamuls EL 620) was added at the rate of 0.1% (vol/vol). Vanda orchids petals were cleaned, washed and air dried prior to spraying. Petals were dipped into the test solution for 3 seconds, air dried, placed inside a resealable plastic and inoculated with 20 adults. The treated petals were kept inside the holding room at 28-29° C. and relative humidity of 50-60%. Percent mortality was recorded after 72 hours.

[8] = tested on: Nephotettix virescens; test: B.9 Rice green leafhopper spray test on rice seedlings; conditions: 72 h, after 72 hours, read-out: mortality in comparison with untreated controls
Protocol: B.9 Rice Green Leafhopper (Nephotettix virescens)
Rice seedlings were cleaned and washed 24 hours before spraying. The active compounds were formulated in 1:1 (vol:vol) water:aceton, and 0.1% vol/vol surfactant (EL 620) was added. Potted rice seedlings were sprayed with 5 ml test solution, air dried, placed in cages and inoculated with 10 adults. Treated rice plants were kept at 28-29° C. and relative humidity of 50-60%. Percent mortality was recorded after 72 hours.

[9] = tested on: Plutella xylostella; test: B.10 Diamondback moth cabbage leaf disk dip test; conditions: 500 ppm; 72 h
Protocol: B.10 Diamondback Moth (Plutella xylostella)
The active compounds were formulated in 1:1 (vol:vol) water:aceton and 0.1% (vol/vol) Alkamuls EL 620 surfactant. A 6 cm leaf disk of cabbage leaves was dipped in the test solution for 3 seconds and allowed to air dry in a Petri plate lined with moist filter paper. The leaf disk was inoculated with 10 third instar larvae and kept at 25-27° C. and 50-60% humidity for 3 days. Mortality was assessed after 72 h of treatment.

Structure (SMILES) | mortality at 500 ppm [1] [%] | mortality at 10 ppm [2] [%] | mortality at 2500 ppm [3] [%] | mortality at 0.3 ppm [1] [%] | mortality at 10 ppm [5] [%] | mortality at 10 ppm [4] [%] | mortality at 1 ppm [5] [%] | further results
Cc1c(C(=O)Nc2ccnnc2)cnn1C(C(F)(F)F)C(F)(F)F [I-34, 5-methyl-1-(2,2,2-trifluoro-1-trifluoromethyl-ethyl)-1H-pyrazole-4-carboxylic acid pyridazin-4-ylamide] | ≥ 75 | ≥ 75 | ≥ 75 | – | – | – | – | –
Cc1c(C(=O)Nc2ccnnc2)cnn1C(C)(C)C [#7 of Table 14 in WO10/034737, reference compound] | – | – | – | 0 | – | – | – | mortality at 3 ppm [4]: 25%
CCN(C(=O)c1cnn(CC(C)C)c1C)c1ccnnc1 [#175 in WO10/034737, reference compound] | – | – | – | 0 | – | – | – | mortality at 0.1 ppm [4]: 0%; mortality at 0.1 ppm [2]: 0%
Cc1c(C(=O)N(C)c2cccnc2)cnn1C(C)C(F)(F)F (centres unmarked) [I-377] | ≥ 75 | – | ≥ 75 | – | ≥ 75 | ≥ 75 | – | mortality at 100 ppm [5]: 100%; mortality at 2500 ppm [6]: ≥ 75%
CCN(C(=O)c1cnn(C(C)C2(C#N)CC2)c1C)c1ccnnc1 (centres unmarked) [I-198] | ≥ 75 | ≥ 75 | – | – | ≥ 75 | ≥ 75 | 100 | mortality at 500 ppm [7]: ≥ 75%
Cc1c(C(=O)Nc2ccnnc2)cnn1C(C)C [#5 of Table 14 in WO10/034737, reference compound] | – | – | – | – | – | – | 0 | mortality at 500 ppm [8]: 0%
Cc1c(C(=O)Nc2ccnnc2)cnn1C(C)(C)C#N [I-32] | ≥ 75 | ≥ 75 | ≥ 75 | 100 | ≥ 75 | ≥ 75 | 100 | mortality at 3 ppm [4]: 90%; mortality at 500 ppm [8]: ≥ 75%
CCN(C(=O)c1cnn(C(C)C(C)C)c1C)c1ccnnc1 (centres unmarked) [I-98] | ≥ 75 | ≥ 75 | ≥ 75 | 75 | ≥ 75 | ≥ 75 | – | mortality at 3 ppm [5]: 75%; mortality at 0.1 ppm [4]: 95%; mortality at 2500 ppm [6]: ≥ 75%; mortality at 0.1 ppm [2]: 95%; feeding damage (FD) [9]: 25%
Cc1c(C(=O)N(C)c2cccnc2)cnn1CC(F)(F)F [#173 in WO09/027393, reference compound] | – | 50 | – | – | 25 | – | – | –
CCN(C(=O)c1cnn(C(C)C(F)F)c1C)c1ccnnc1 (centres unmarked) [I-201] | ≥ 75 | ≥ 75 | – | – | ≥ 75 | ≥ 75 | 100 | mortality at 500 ppm [7]: ≥ 75%
CCN(C(=O)c1cnn(C(C)C)c1C)c1ccnnc1 [#5 of Table 98 in WO10/034737, reference compound] | – | – | – | – | – | – | 0 | mortality at 3 ppm [5]: 0%; feeding damage (FD) [9]: 100%; mortality at 500 ppm [7]: 0%
Cc1c(C(=O)N(C)c2ccnnc2)cnn1C(C(F)(F)F)C(F)(F)F [I-38, N,5-dimethyl-N-pyridazin-4-yl-1-[2,2,2-trifluoro-1-(trifluoromethyl)ethyl]pyrazole-4-carboxamide] | ≥ 75 | ≥ 75 | ≥ 75 | – | – | ≥ 75 | – | –
CCn1ncc(C(=O)N(C)c2cccnc2)c1C [#180 in WO09/0027393, reference compound] | – | – | – | – | – | – | – | mortality at 100 ppm [5]: 0%

Source: patent publication US9198422B2, “Pesticidal pyrazole compounds” (BASF SE, priority 2011, dated 2015)
